Publication PMC10590383, “Repurposing conformational changes in ANL superfamily enzymes to rapidly generate biosensors for organic and amino acids” (Nature Communications, 2023)

Legend:
[1] = Substrate (ligand) specificity of […]s; assay type: biochemical; settings: for fluorescence response of GECFINDER to each substrate, AVE of 3 repeats: Supplementary Fig. 3 c, substrate specificity
Outline: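 Purified biosensor protein (0.75 μM) with ligand, 1 mM ATP and 2.5 mM MgCl2 in 100 mM Tris-HCl, pH 7.5, at room temperature. Fluorescence (Ex 460 or 480/Em 510 nm) read each minute for 15 min. Dose-response fitted by 5-parameter logistic; specificity tested with 20 amino acids at 100 μM as normalized ΔF/F0.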

[2] = Fluorescence spectra / excitation wavelength scan of […]s; assay type: physicochemical; settings: Wavelength 300 nm
Description: Fig. 3 Dose–response curves and fluorescence spectrums of […]s. a, c, e, g, i, k Dose–response curve of purified […]s with increasing concentrations of ligand in 100 mM Tris-HCl buffer (pH=7.5). […] All data shown are mean ± S.D. (n = 3 biologically independent samples). Source data are provided as a Source data file.
The study conducted dose–response curve, substrate specificity, and fluorescent spectrum analyses in 100-mM Tris buffer (pH = 7.5), while pH stability experiments were performed in 100-mM Tris buffer at three different pH values (6.5, 7.5, and 8.5) at room temperature. […] protein at a concentration of 0.75 μM, various small molecule concentrations, 1 mM ATP, and 2.5 mM MgCl2 were used in the experiments. Fluorescent signals were detected using a Microplate Reader (Synergy H4, Bio Tek) at an excitation/emission wavelength of 460 nm/510 nm or 480 nm/510 nm. The dose-response curve was determined immediately after the addition of the analyte. The total duration of the measurement was 15 min, with readings taken at one-minute intervals. The dose-response curve was plotted using the fluorescence values obtained after achieving stability in the fluorescence signal. The dose-response curves were fitted using the logistic model LOGISTIC5 available in Origin 2021, which could provide a more adequate fit to asymmetric dose-response data[62],[63]. Excitation spectra were scanned from 300 to 540 nm with a step size of 5 nm, and the emission wavelength was set to 560 nm. Emission spectra were scanned from 470 to 700 nm with a step size of 5 nm, and the excitation wavelength was set to 450 nm. The thermal stability of […] was analyzed using the UNcle multifunctional protein stability analysis system. Measurements were performed in 20 mM MOPS buffer with 2 mM DTT at a sample concentration of 1 mg/mL. Absolute fluorescence quantum yields were measured using an absolute photoluminescence quantum yield spectrometer (FS5, Edinburgh).

SMILES	fluorescence response of GECFINDER to each substrate, AVE of 3 repeats [1]	Wavelength scan, AVE of Repeat 1-3 (Fig. 3 j) ([2]; 0.05 μM Ile)	Wavelength scan, AVE of Repeat 1-3 (Fig. 3 j) ([2]; 100 μM Ile)	Wavelength scan, AVE of Repeat 1-3 (Fig. 3 j) ([2]; 10000 μM Ile)	Wavelength scan, AVE of Repeat 1-3 (Fig. 3 l) ([2]; 0.005 μM His)	Wavelength scan, AVE of Repeat 1-3 (Fig. 3 l) ([2]; 10 μM His)	Wavelength scan, AVE of Repeat 1-3 (Fig. 3 l) ([2]; 1000 μM His)	AVE of Repeat 1-3, sensor signal with ligand (Supplementary Fig. 7 c) ([1]; 0.5 mM ligand, Control AVE 12117.3)	Wavelength scan, AVE of Repeat 1-3 (Fig. 3 d) ([2]; 0.001 μM Phe)	Wavelength scan, AVE of Repeat 1-3 (Fig. 3 d) ([2]; 1 μM Phe)
CC[C@H](C)[C@H](N)C(=O)O [Ile]	0.009799	3399.67	3371.67	3289.33	–	–	–	–	–	–
N[C@@H](Cc1cnc[nH]1)C(=O)O [His]	0.0452	–	–	–	201.667	165.667	210	–	–	–
N[C@@H](Cc1ccccc1)C(=O)O [Phe]	0.3443	–	–	–	–	–	–	23386.3	174.667	212
